Laboratory results from ChEMBL document CHEMBL5096227, “Discovery of Ervogastat (PF-06865571): A Potent and Selective Inhibitor of Diacylglycerol Acyltransferase 2 for the Treatment of Non-alcoholic Steatohepatitis” (J Med Chem, 2022).

Tests used:
[1] = biological target: T1, Diacylglycerol O-acyltransferase 1 (Homo sapiens, UniProt O75907); experiment: Inhibition of human DGAT1 using [1-14C]decanoyl-CoA and 1,2-didecanoyl-sn-glycerol as substrates assessed as incorporation of [1-14C]decanoyl […] preincubated for 30 mins followed by substrate addition and measured after 30 to 90 mins by scintillation counting method
T1 sequence (O75907 whole entry): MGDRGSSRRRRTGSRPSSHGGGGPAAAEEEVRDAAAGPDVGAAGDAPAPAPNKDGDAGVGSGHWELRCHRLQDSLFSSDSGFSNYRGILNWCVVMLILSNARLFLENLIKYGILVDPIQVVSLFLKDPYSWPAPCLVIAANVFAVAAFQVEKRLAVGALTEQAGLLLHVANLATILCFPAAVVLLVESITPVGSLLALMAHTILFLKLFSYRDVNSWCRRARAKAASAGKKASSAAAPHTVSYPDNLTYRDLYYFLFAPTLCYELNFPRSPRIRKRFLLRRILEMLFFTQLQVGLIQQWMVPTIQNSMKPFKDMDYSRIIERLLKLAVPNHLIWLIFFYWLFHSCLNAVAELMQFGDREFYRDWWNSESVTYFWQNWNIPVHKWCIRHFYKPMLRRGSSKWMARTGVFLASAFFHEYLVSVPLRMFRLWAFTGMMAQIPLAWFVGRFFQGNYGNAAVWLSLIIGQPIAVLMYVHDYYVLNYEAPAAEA

[2] = Apparent permeability in MDCK-II cells; format: ADME, cell-based, Canis lupus familiaris; details: dog, MDCK; read-out: Papp
[3] = biological target: CYP3A4/5 (Homo sapiens, UniProt P08684+P20815); experiment: Reversible inhibition of CYP3A4/5 in pooled human liver microsomes; format: ADME, Microsome
[4] = biological target: T2, Cytochrome P450 2C8 (Homo sapiens, UniProt P10632); experiment: Reversible inhibition of CYP2C8 in pooled human liver microsomes using desethylamodiaquine as substrate incubated for 10 mins in presence of NADPH by HPLC-MS/MS analysis; format: ADME, Microsome
T2 sequence (P10632 whole entry): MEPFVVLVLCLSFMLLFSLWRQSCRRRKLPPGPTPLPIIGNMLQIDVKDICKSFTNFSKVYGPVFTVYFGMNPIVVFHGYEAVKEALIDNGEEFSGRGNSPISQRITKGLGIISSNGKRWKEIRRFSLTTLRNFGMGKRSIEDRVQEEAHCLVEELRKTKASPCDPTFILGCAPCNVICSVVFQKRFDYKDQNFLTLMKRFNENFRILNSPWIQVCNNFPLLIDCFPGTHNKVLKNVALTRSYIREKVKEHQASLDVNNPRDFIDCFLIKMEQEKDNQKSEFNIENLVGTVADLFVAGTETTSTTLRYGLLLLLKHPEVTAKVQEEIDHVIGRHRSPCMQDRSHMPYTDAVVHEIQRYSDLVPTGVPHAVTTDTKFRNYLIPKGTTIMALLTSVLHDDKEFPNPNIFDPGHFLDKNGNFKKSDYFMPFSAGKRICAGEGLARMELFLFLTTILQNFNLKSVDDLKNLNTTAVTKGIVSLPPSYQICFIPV

[5] = biological target: Cytochrome P450 2C19 (Homo sapiens, UniProt P33261); experiment: Reversible inhibition of CYP2C19 in pooled human liver microsomes using 4-Hydroxymephenytoin as substrate incubated for 20 mins in presence of NADPH by HPLC-MS/MS analysis; format: ADME, Microsome
[6] = biological target: Cytochrome P450 2D6 (Homo sapiens, UniProt P10635); experiment: Reversible inhibition of CYP2D6 in pooled human liver microsomes using dextrorphan as substrate incubated for 14 mins in presence of NADPH by HPLC-MS/MS analysis; format: ADME, Microsome
[7] = Oral bioavailability in Wistar Han rat at 5 mg/kg; format: ADME, organism-based; details: in vivo
[8] = Drug metabolism in cryopreserved human hepatocytes assessed as O-dearylation mediated oxidative metabolite formation at 10 uM measured for 240 mins by HPLC-UV-MS analysis; format: ADME, cell-based, Hepatocyte; details: 4 h
[9] = Drug metabolism in cryopreserved human hepatocytes assessed as O-deethylation mediated pyridin-3-ol metabolite formation at 10 uM measured for 240 mins by HPLC-UV-MS analysis; format: ADME, cell-based, Hepatocyte; details: 4 h
[10] = Half life in human; format: ADME
[11] = Inhibition of [14C]-glycerol incorporation into triglycerides in human primary hepatocytes; format: functional, cell-based; details: hepatocyte
[12] = Inhibition of [14C]-glycerol incorporation into triglycerides in monkey primary hepatocytes; format: functional, cell-based, Macaca mulatta; details: hepatocyte
[13] = Volume of distribution at steady state in Wistar Han rat at 1 mg/kg, iv; format: ADME, organism-based; details: in vivo, read-out: Vdss
[14] = Plasma clearance in cynomolgus monkey at 1 mg/kg, iv; format: ADME, organism-based, Macaca fascicularis
[15] = Half life in cynomolgus monkey at 1 mg/kg, iv; format: ADME, organism-based, Macaca fascicularis; details: in vivo
[16] = Half life in cynomolgus monkey at 5 mg/kg, po; format: ADME, organism-based, Macaca fascicularis; details: in vivo
[17] = Volume of distribution at steady state in cynomolgus monkey at 1 mg/kg, iv; format: ADME, organism-based, Macaca fascicularis; details: in vivo, read-out: Vdss
[18] = Oral bioavailability in cynomolgus monkey at 5 mg/kg; format: ADME, organism-based, Macaca fascicularis; details: in vivo
[19] = Drug metabolism in cryopreserved human hepatocytes assessed as hydrolytic cleavage of amide bond mediated metabolite formation at 10 uM measured for 240 mins by HPLC-UV-MS analysis; format: ADME, cell-based, Hepatocyte; details: 4 h
[20] = Plasma protein binding in cynomolgus monkey assessed as unbound fraction ratio at 2 uM; format: ADME, cell-free, Macaca fascicularis
[21] = Drug metabolism in rat hepatocytes assessed as hydrolytic cleavage of amide bond mediated metabolite formation; format: ADME, cell-based, Hepatocyte
[22] = Drug metabolism in monkey hepatocytes assessed as hydrolytic cleavage of amide bond mediated metabolite formation; format: ADME, cell-based, Macaca mulatta, Hepatocyte; details: rhesus monkey
[23] = test system: Rattus norvegicus; experiment: In vivo inhibition of DGAT2 in high fat/high cholesterol diet fed Sprague-Dawley rat model assessed as reduction in plasma triglyceride level administered orally twice daily for 7 days starting from day 14 post diet and measured 2 hrs post last dose; format: functional, organism-based; details: dose 0.3-90 mg/kg, route po, time 7.0 day, DDE = dose-dependent effect
[24] = test system: Rattus norvegicus; experiment: In vivo inhibition of DGAT2 in high fat/high cholesterol diet fed Sprague-Dawley rat model assessed as reduction in hepatic triglyceride level administered orally twice daily for 7 days starting from day 14 post diet and measured 2 hrs post last dose; format: functional, organism-based; details: dose 0.3-90 mg/kg, route po, time 7.0 day, DDE = dose-dependent effect
[25] = In vivo inhibition of DGAT2 in high fat/high cholesterol diet fed Sprague-Dawley rat model assessed as reduction in hepatic triglyceride level at 90 mg/kg, po administered twice daily for 7 days starting from day 14 post diet and measured 2 hrs post last dose relative to control; format: functional; design: scale not given: the % may be the effect or the level left; details: time 7 day
[26] = In vivo inhibition of DGAT2 in high fat/high cholesterol diet fed Sprague-Dawley rat model assessed as reduction in plasma triglyceride level at 90 mg/kg, po administered twice daily for 7 days starting from day 14 post diet and measured 2 hrs post last dose relative to control; format: functional; design: scale not given: the % may be the effect or the level left; details: time 7 day
[27] = biological target: Voltage-gated inwardly rectifying potassium channel KCNH2 (Homo sapiens, UniProt Q12809); experiment: Inhibition of hERG by patch-clamp method; format: toxicity
[28] = Genotoxicity in human TK6 cells by micronucleus test; format: toxicity, cell-based
[29] = Toxicity in rat assessed as development-limiting toxicity; details: in vivo
[30] = physchem; details: buffer, pH 7.4
Description: Lipophilicity, logD of compound at pH 7.4 by shake flask method

Chain of Voltage-gated inwardly rectifying potassium channel KCNH2 (Q12809 whole entry): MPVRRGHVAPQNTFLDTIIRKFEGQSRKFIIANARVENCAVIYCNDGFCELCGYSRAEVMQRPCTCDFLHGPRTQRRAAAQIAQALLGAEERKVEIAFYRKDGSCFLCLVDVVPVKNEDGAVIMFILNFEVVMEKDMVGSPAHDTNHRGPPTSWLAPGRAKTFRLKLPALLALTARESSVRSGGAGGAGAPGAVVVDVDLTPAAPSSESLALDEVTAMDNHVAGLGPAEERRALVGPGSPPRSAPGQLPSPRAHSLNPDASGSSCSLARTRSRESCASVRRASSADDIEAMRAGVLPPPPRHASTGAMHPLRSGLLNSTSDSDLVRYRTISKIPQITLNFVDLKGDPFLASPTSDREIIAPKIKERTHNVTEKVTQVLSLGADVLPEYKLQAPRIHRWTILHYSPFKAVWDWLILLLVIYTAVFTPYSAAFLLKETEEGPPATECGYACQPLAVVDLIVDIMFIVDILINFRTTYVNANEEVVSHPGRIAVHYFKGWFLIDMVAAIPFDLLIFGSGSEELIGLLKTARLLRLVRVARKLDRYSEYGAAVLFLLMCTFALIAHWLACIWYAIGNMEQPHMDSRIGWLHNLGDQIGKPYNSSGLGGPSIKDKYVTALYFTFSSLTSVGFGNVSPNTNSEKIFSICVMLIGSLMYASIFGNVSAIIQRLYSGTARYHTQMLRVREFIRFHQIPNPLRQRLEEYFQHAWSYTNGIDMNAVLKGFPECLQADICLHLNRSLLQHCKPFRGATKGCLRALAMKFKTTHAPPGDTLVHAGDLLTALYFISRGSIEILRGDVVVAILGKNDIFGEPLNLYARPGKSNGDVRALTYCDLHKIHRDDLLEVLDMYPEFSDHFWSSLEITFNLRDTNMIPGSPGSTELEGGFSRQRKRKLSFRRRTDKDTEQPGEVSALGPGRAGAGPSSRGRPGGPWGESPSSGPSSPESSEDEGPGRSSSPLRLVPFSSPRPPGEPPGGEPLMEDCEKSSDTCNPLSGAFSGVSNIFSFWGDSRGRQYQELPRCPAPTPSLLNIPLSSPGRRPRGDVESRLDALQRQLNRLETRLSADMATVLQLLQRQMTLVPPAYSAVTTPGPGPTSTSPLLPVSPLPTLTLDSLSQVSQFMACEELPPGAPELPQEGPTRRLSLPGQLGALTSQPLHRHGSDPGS
Chain of Cytochrome P450 2C19 (P33261 whole entry): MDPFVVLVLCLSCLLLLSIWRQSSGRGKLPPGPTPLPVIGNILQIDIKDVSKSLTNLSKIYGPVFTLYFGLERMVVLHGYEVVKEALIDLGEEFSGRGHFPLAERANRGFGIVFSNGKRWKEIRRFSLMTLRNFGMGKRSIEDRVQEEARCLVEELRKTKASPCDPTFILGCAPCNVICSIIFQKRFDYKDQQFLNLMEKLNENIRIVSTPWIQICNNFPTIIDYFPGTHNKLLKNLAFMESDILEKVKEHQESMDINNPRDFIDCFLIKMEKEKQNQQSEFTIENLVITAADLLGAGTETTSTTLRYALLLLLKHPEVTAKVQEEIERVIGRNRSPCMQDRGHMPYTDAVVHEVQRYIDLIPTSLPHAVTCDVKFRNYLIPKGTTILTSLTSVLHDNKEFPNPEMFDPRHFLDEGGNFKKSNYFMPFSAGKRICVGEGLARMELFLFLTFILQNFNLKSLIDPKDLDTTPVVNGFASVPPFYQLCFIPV
Chain of Cytochrome P450 2D6 (P10635 whole entry): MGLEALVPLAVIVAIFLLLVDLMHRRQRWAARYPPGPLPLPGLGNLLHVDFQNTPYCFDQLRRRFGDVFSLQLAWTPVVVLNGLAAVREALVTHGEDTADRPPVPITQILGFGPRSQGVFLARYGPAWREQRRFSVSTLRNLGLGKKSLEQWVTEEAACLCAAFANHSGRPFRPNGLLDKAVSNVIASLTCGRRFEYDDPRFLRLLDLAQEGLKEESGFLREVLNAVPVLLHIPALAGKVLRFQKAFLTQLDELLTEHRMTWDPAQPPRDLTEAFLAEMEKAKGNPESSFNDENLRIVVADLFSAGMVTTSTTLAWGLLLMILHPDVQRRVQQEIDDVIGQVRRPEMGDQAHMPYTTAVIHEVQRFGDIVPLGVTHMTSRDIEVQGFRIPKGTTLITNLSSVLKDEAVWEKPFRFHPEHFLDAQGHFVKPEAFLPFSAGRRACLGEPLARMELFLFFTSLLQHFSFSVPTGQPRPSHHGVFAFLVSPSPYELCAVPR

IC50 [1]: > 50 µM | Papp [2]: 19 ×10⁻⁶ cm/s | IC50 [3]: > 100 µM | IC50 [4]: > 100 µM | IC50 [5]: 57 µM | IC50 [6]: > 100 µM | bioavailability [7]: 31% | Drug metabolism [8]: Metabolite_Detected | Drug metabolism [9]: Metabolite_Detected | half-life [10]: 5 h | Vd [13]: 0.9 L/kg | clearance [14]: 10 mL/min/kg | half-life [15]: 1 h | half-life [16]: 4 h | Vd [17]: 0.7 L/kg | bioavailability [18]: 48% | Drug metabolism [19]: Metabolite_Detected | Ratio [20]: 0.36 | Drug metabolism [21]: Metabolite_Detected | Drug metabolism [22]: Metabolite_Detected | logD [30]: 1.9
SMILES: CCOc1cccnc1Oc1cncc(-c2ncc(C(=O)N[C@H]3CCOC3)cn2)c1 [PF-06865571]
IC50 [11]: 0.00279 µM | IC50 [12]: 0.00213 µM | Activity [23]: Dde | Activity [24]: Dde | Activity [25]: 49% | Activity [26]: 70% | IC50 [27]: > 100 µM | Activity [28]: Non-Toxic | Activity [29]: Non-Toxic
